Entries after “also recorded” stand apart in the source; their conditions may differ.
What was measured:
[1] = tested on: H3K9Me2, H3K27Ac, H3K27Me3 in LOCK regions of A38Lg; test: ChIP-seq on control (DMSO) and 6AN-treated A38Lg cells; assay type: cell-based, human; conditions: DMSO vs. 6AN
Protocol: RNAi experiments were performed with siRNA transfections (Oligofectamine, Life Technologies) using negative control siRNA (Sigma, SIC001) and pre-designed siRNA oligonucleotides against indicated genes in parallel (Sigma, PGD: SASI_Hs02 00334150, CDH2: SASI_Hs01_00153995, TOP2B: SASI_Hs02_00311874). siRNAs against mutant KRAS^G12V (CUACGCCAACAGCUCCAAC) (SEQ ID NO:1) were custom designed. Cells were incubated with siRNAs for 4 days after transfection and harvested. For drug treatments in 2-D, cells were grown to 70-80% confluency and treated for 3 days with 250 uM 6AN or DMSO negative control.
Tests for statistical significance (two-tailed students t-test) were performed on data collected from technical replicate (performed in parallel at the same time) or biological replicate (performed at different times) experiments as indicated in the figure legends using excel software for western blot densitometry, MTT assays, and tumor measurements. Whole genome bisulfite sequencing and RNA-seq were performed with HiSeq instruments (Illumina) as described in Hansen et al. (Increased methylation variation in epigenetic domains across cancer types. Nat Genet 43, 768-75 (2011)). ChIP assays were performed as previously described for fixed cells with sonication. For ChIP-qPCR, equal amounts of paired input/IP DNA were amplified by real-time PCR (Roche LightCycler96) and fold enrichments calculated. Primer sequences are listed in Supplementary Table 11. […] IP sequencing reads were normalized to their corresponding inputs. […]
Chip-seq data processing. For 46 bp paired-end Illumina HiSeq2000 sequencing data, reads were aligned against human genome (hg19) using BWA with default parameters as described in Li et al. (Fast and accurate short read alignment with Burrows-Wheeler transform. Bioinformatics 25, 1754-60 (2009)). After alignment, duplicate reads were removed and only uniquely aligned reads were kept for further analysis. For 48 bp single-end Solid sequencing data, reads were aligned using Bowtie^7 with default parameters and only uniquely aligned reads were kept for further analysis. […]

[2] = tested on: H3K9Me2 and H3K27Ac across CDH2 and TOP2B gene loci; test: ChIP-qPCR across CDH2 and TOP2B loci; assay type: cell-based, human
Protocol: Tests for statistical significance (two-tailed students t-test) were performed on data collected from technical replicate (performed in parallel at the same time) or biological replicate (performed at different times) experiments as indicated in the figure legends using excel software for western blot densitometry, MTT assays, and tumor measurements. Whole genome bisulfite sequencing and RNA-seq were performed with HiSeq instruments (Illumina) as described in Hansen et al. (Increased methylation variation in epigenetic domains across cancer types. Nat Genet 43, 768-75 (2011)). ChIP assays were performed as previously described for fixed cells with sonication. For ChIP-qPCR, equal amounts of paired input/IP DNA were amplified by real-time PCR (Roche LightCycler96) and fold enrichments calculated. Primer sequences are listed in Supplementary Table 11. […] IP sequencing reads were normalized to their corresponding inputs. Sequencing procedures, bioinformatics methods including domain calls, and statistical analyses are described in detail within the supplementary methods section.

In the case of NC(=O)c1ccc(N)nc1 [6AN, 6-aminonicotinamide], the “H3K27Ac at genes repressed from LOCKs (ChIP-seq)” value [1] is reported as “reduced”, the “LOCK-wide H3K9Me2 from reprogrammed regions (ChIP-seq)” value [1] is reported as “quantitative increase” and the “levels of H3K27Me3 (ChIP-seq)” value [1] is reported as “remained stable; also recorded: unchanged”. For the same molecule, the “H3K9Me2 across CDH2/TOP2B loci (ChIP-qPCR)” value ([2]; matched lung metastasis A38Lg) was “enrichment of H3K9Me2 across both loci; also recorded: induced spreading of H3K9Me2 across the locus”, the “H3K27Ac over the CDH2 genic region (ChIP-qPCR)” value ([2]; matched lung metastasis A38Lg) was “concordant reductions; also recorded: corresponding loss of H3K27Ac” and the “H3K9Me2 and H3K27Ac enrichments across CDH2/TOP2B loci (ChIP-qPCR), control vs 6AN” value ([2]; peritoneal subclone A38Per) was “nearly identical enrichments; also recorded: no effect”.

From patent US11795510B2, “Identification of epigenomic reprogramming in cancer and uses thereof” (The Johns Hopkins University, priority 2016, dated 2023)
